Test results reported in the NIST ThermoML archive (doi:10.1016/j.fluid.2018.11.001).
Numbers after ± are expanded uncertainties.

Settings: Crystal; visual observation

| SMILES | Normal melting temperature |
| --- | --- |
| CCn1cc[n+](C)c1.Cc1ccc(S(=O)(=O)[O-])cc1 [1-ethyl-3-methylimidazolium 4-methylbenzenesulfonate] | 54.2 ± 0.7 °C |
| CCn1cc[n+](C)c1.[Br-] [1-ethyl-3-methylimidazolium bromide] | 77.1 ± 0.7 °C |
